From paper PMC10177516, “Design and Biological Evaluation of Small-Molecule PET-Tracers for Imaging of Programmed Death Ligand 1” (Cancers, 2023)
Like-named read-outs stand apart in the source and are kept apart here.

Key:
[1] = tested on: PD-L1; parameters: method as in earlier work; details: reported values; cited from earlier work
[2] = log D7.4 determination, shake-flask n-octanol/PBS; format: physicochemical; details: ^64Cu-labeled, n-octanol/PBS pH 7.4, mean ± SD, n=3
Method: n-Octanol/water distribution coefficients (log D7.4) were determined using the shake-flask method and performed in triplicate. Twenty µL of the reaction mixture was added to a 1.5 mL Eppendorf Tube containing 580 µL of 1× PBS (pH 7.4) and 600 µL n-octanol. The two-phase system was shaken at room temperature with 1500 rpm for 5 min. After centrifugation, an aliquot of each phase was withdrawn, and the count rates were measured in a γ-counter (ISOMED2160 sodium iodide crystal detector). The average was calculated, corrected for background activity, and the log D7.4 value was calculated according to the formula: logD7.4=logAn−octanol/APBS .

[3] = tested on: human serum proteins; test: Serum protein binding, size-exclusion chromatography; format: in vitro ADME; details: ^177Lu-labeled; human serum 37 °C; 1 h
Method: The corresponding ligand was labeled with approx. 50 MBq of ^177Lu in 200 µL HEPES solution (pH 4) as described above. After successful labeling, 40 µL were mixed with 500 µL of human serum or 500 µL of 1 M HEPES solution (control), respectively. The samples were incubated at 37 °C with 500 rpm and were analyzed by size-exclusion chromatography (Jasco Germany GmbH, Pfungstadt, System F) and native discontinuous polyacrylamide gel electrophoresis (PAGE).
For size-exclusion chromatography, 20 µL aliquots were injected into system F and the obtained peak areas of serum-bound ligands and unbound ligands were used to calculate the percentage of radioligand bound to serum proteins. Evaluation and graphical plotting were performed with OriginPro® 9.0.

[4] = Proteolytic stability in human serum, radio-HPLC; format: in vitro ADME; details: ^177Lu-labeled, throughout the study (up to seven days)
Method: The corresponding radiotracer was labeled with approx. 50 MBq of ^177Lu in 200 µL HEPES solution (pH 4) as described above. After successful labeling, the reaction mixture was diluted 1:10 with human serum. The solution was incubated at 37 °C with shaking at 500 rpm. After 1 h, 24 h, 48 h, 72 h, and 7 d, a 1 µL aliquot was analyzed by radio-TLC as described above. Evaluation and graphical plotting were performed with OriginPro® 9.0.
For investigation by radio-HPLC, a chloroform–methanol precipitation was carried out at each time point. An aliquot (100 µL) of the serum-containing incubation reaction was mixed with 400 µL of MeOH. Then, 100 µL of chloroform were added and the sample was vortexed well. For phase separation, 300 µL of ultrapure water were added, and the sample was vortexed vigorously and centrifuged for 2 min at 14,000× g. The upper, aqueous layer was carefully removed and collected. To the lower chloroform phase and the interphase containing the precipitated proteins, 400 µL of MeOH was added. The sample was mixed and centrifuged again for 3 min at 14,000× g to pellet the proteins. […] Afterward, the clear supernatant was analyzed by radio-HPLC (system E). The peak areas were normalized by measuring the activity with the gamma counter (HIDEX Deutschland Vertrieb GmbH, Mainz, Germany) at the corresponding time point. Evaluation and graphical plotting were performed with OriginPro® 9.0.

[5] = tested on: PC3 PD-L1 and PC3 mock tumors; test: Small animal PET/CT in tumor-bearing mice; format: in vivo, NMRI-nude mice; details: blocking with 100 nmol of the respective unlabeled compound; PET
Method: Male athymic NMRI-nude mice (Rj:NMRI-Foxn1nu, Janvier Labs, Le Genest-Saint-Isle, France) between 8 and 22 weeks of age were used. Under general anesthesia, [~10% desflurane (Baxter, Deerfield, IL, USA) in 30 vol% oxygen + air] and warming, animals were subcutaneously injected with 3–5 × 10^6 PC3 PD-L1 and PC3 mock cells [in 50 µL PBS + 50 µL Matrigel (Corning, Glendale, CA, USA)] into the right and left thigh, respectively. Tumor growth was monitored three times a week by caliper measurements and mice with tumor sizes above 7 mm were included in the experiments.
For PET studies, general anesthesia was induced as described above. PET and X-ray computed tomography (CT) were performed in a dedicated small animal nanoScan PET/CT scanner, with 4 animals imaged simultaneously (Mediso, Budapest, Hungary). CT images were employed for attenuation correction and anatomical referencing. Animals received three individual scans corresponding to 0–2 h (dynamic), 4.5 h, and 24 h (static) post injection. […]
Three-dimensional volumes of interest were delineated applying fixed thresholding at 35% of the measured maximum intensity. Standardized uptake values (SUV = [MBq detected activity/mL tissue]/[MBq injected activity/g body weight], […]) were determined in selected volumes of interest, among these PD-L1 and mock tumors and metabolizing organs.

[6] = biological target: T1, PD-L1 (Homo sapiens, UniProt Q9NZQ7); test: Real-time radioligand binding (LigandTracer) on PC3 PD-L1 overexpressing cells; details: for kon: read-out: ka (association rate constant); for koff: read-out: kd (dissociation rate constant)
T1 construct: expressed in transfected cells; host or cells: PC3 cells, lentiviral transduction (PC3-PD-L1)
Method: For binding kinetics (association rate constant ka and dissociation rate constant kd) and dissociation constant (KD), a real-time assay system (LigandTracer Yellow, Ridgeview Instruments AB, Uppsala, Sweden) was employed. In this system, the petri dish containing the cells in medium (3 mL) was located on one side, while radioactivity was detected on the opposite side. The dish rotated on an inclined base, which allowed continuously measuring two or more alternating parts of the dish for bound radioligand (cells) against background (no cells). Binding was performed at room temperature (using CO2-independent medium, Gibco #18045088, ThermoFisher Germany) with or without BSA (2.5%). Association was determined through incubation with two concentrations (10 and 40 nM, 90 min each) of our ^64Cu-labeled PD-L1 small molecules, binding to PC3 PD-L1 overexpressing cells. This was followed by replacement with fresh medium and measurement of dissociation for at least 2 h. This approach provided reliable kinetic measurements as previously shown. Data were acquired in decay-corrected counts per second (CPS). Binding data were then evaluated using TraceDrawer (1.9.2, Ridgeview Instruments AB, Uppsala, Sweden). Traces were imported, potential spikes (>100% sudden increases in CPS over previous datapoint) removed, and each trace was normalized to its own baseline (=0%) and highest value (=100%). The single experiment in the presence of 2.5% BSA was processed in the same way and analyzed for the same parameters, however without replicates.

[7] = biological target: T1, PD-L1; test: Saturation binding assay (endpoint, with 2.5% BSA) on PD-L1-positive PC3 cells
Method: To determine the dissociation constant (KD) and number of binding sites (Bmax) of new PD-L1 small-molecule ligands, saturation binding was performed in at least 3 independent experiments. PC3 cells stably transduced with human PD-L1, cultured under conditions described above, were brought to room temperature followed by cooling on ice (each 15 min). The medium was removed and replaced with 200 µL assay buffer [PBS + 2.5% (w/v) bovine serum albumin (BSA; #1ETA, Carl Roth, Karlsruhe, Germany)] for total binding (TB) conditions or assay buffer containing 300 µM of 1 (in DMSO, resulting in 0.03% v/v, synthesized according to Supplementary Scheme S1) for assessment of nonspecific binding (NSB).
After 15 min preincubation for TB/NSB, 200 µL of each eight serial 1:1 dilutions (500 to 3.91 nM) of the respective radioligand were added (in triplicate). […] Radioactivity (counts per minute, CPM) of 400 µL of the lysate was measured in a gamma counter (Perkin Elmer Wizard 1480) using the nuclide-specific energy window. Additionally, we determined the binding to polystyrene in 400 µL of lysate and activity of stock solutions (50 µL). […] Protein content of the lysates (24 or 48 wells) was determined by BCA assay and a mean value (µg/mL) used for this particular dataset (plate). From CPM measurements, final values (pmol/mg protein) were calculated using mean protein content and molar activity. […]

[8] = medium only (no BSA), n = 2, mean ± S.D.

T1 sequence (Q9NZQ7 19-290): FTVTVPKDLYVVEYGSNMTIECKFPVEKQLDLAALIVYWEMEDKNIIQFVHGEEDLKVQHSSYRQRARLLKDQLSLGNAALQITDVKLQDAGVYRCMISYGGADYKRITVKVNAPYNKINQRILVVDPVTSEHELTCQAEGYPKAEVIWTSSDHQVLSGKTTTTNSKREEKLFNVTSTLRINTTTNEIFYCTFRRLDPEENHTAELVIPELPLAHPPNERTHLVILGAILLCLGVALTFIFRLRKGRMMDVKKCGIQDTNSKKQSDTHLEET

Structure (SMILES): Cc1c(COc2cc(OCc3cncc(C#N)c3)c(CN(C)C(CO)(CO)CO)cc2Cl)cccc1-c1cccc(OCCCN2CCC(F)(F)C2)c1C [compound 3]
- IC50 [1]: 0.5 nM

Structure (SMILES): CN(CC(=O)NCC(S(=O)(=O)O)S(=O)(=O)O)Cc1cc(Cl)c(OCc2cccc(-c3cccc(OCc4cn(CCCC5CCN(C(=O)CN6CCN(CC(=O)O)CCN(CC(=O)O)CCN(CC(=O)O)CC6)CC5)nn4)c3)c2Br)cc1OCc1cncc(S(C)(=O)=O)c1 [42a]
- logD [2]: -2.73

Structure (SMILES): Cc1c(COc2cc(OCc3cncc(C#N)c3)c(CN(C)CC(=O)NCC(S(=O)(=O)O)S(=O)(=O)O)cc2Cl)cccc1-c1cccc(OCc2cn(CCCN3CCN(C(=O)CN4CCN(CC(=O)O)CCN(CC(=O)O)CCN(CC(=O)O)CC4)CC3)nn2)c1C [56a]
- bound to human serum proteins (mean ± SD) [3]: 95.7%
- intact radiotracer [4]: > 90%

Structure (SMILES): Cc1c(COc2cc(OCc3cncc(S(C)(=O)=O)c3)c(CN(C)CC(=O)NCC(S(=O)(=O)O)S(=O)(=O)O)cc2Cl)cccc1-c1cccc(OCc2cn(CCCN3CCN(C(=O)CN4CCN(CC(=O)O)CCN(CC(=O)O)CCN(CC(=O)O)CC4)CC3)nn2)c1C [43b]
- blocking effect [5]: moderate blocking effect

Structure (SMILES): CN(CC(=O)NCC(S(=O)(=O)O)S(=O)(=O)O)Cc1cc(Cl)c(OCc2cccc(-c3cccc(OCc4cn(CCOCCOCCN5CCN(C(=O)CN6CCN(CC(=O)O)CCN(CC(=O)O)CCN(CC(=O)O)CC6)CC5)nn4)c3)c2Br)cc1OCc1cncc(S(C)(=O)=O)c1 [42c]
- intact radiotracer [4]: > 90%

Structure (SMILES): CCCC[C@H]1C(=O)N(C)[C@@H](CCCC)C(=O)N[C@@H](CCCNC(=O)CCC(C(=O)O)N2CCN(CC(=O)O)CCN(CC(=O)O)CCN(CC(=O)O)CC2)C(=O)N[C@H](C(=O)NCC(N)=O)CSCC(=O)N[C@@H](Cc2ccc(O)cc2)C(=O)N(C)[C@@H](C)C(=O)N[C@@H](CC(N)=O)C(=O)N2CCC[C@H]2C(=O)N[C@@H](Cc2c[nH]cn2)C(=O)N[C@@H](CC(C)C)C(=O)N2C[C@H](O)C[C@H]2C(=O)N[C@@H](Cc2c[nH]c3ccccc23)C(=O)N[C@@H](CO)C(=O)N[C@@H](Cc2cn(C)c3ccccc23)C(=O)N1C (stereo partly drawn) [[^64Cu]Cu-DOTAGA-WL12, metal not drawn]
- logD [2]: -2.57 ± 0.02
- kon ([6]; medium + 2.5% BSA, n = 1): 7460 M⁻¹ s⁻¹
- koff ([6]; medium + 2.5% BSA, n = 1): 6.74e-06 s⁻¹
- kon [6, 8]: 12200 M⁻¹ s⁻¹
- koff [6, 8]: 9.77e-06 s⁻¹
- Bmax (maximum number of binding sites) ([7]; ^64Cu complexes, saturation binding with 2.5% BSA, PD-L1-positive PC3 cells): 56.7 ± 3.87 pmol/mg
- affinity, times worse than previously reported using SPR ([7]; saturation KD versus SPR value of ref 68): approximately 15 times

Structure (SMILES): Cc1c(COc2cc(OCc3cncc(S(C)(=O)=O)c3)c(CN(C)CC(=O)NCC(S(=O)(=O)O)S(=O)(=O)O)cc2Cl)cccc1-c1cccc(OCc2cn(CCOCCOCCN3CCN(C(=O)CN4CCN(CC(=O)O)CCN(CC(=O)O)CCN(CC(=O)O)CC4)CC3)nn2)c1C [43c]
- logD [2]: -3.5
- intact radiotracer [4]: > 90%

Structure (SMILES): Cc1c(COc2cc(OCc3cncc(C#N)c3)c(CN(C)CC(=O)NCC(S(=O)(=O)O)S(=O)(=O)O)cc2Br)cccc1-c1cccc(OCc2cn(CCCN3CCN(C(=O)CN4CCN(CC(=O)O)CCN(CC(=O)O)CCN(CC(=O)O)CC4)CC3)nn2)c1C [56b]
- bound to human serum proteins (mean ± SD) [3]: 94.6%
- intact radiotracer [4]: > 90%

Structure (SMILES): Cc1c(COc2cc(OCc3cncc(C#N)c3)c(CN(C)CC(=O)NCC(S(=O)(=O)O)S(=O)(=O)O)cc2I)cccc1-c1cccc(OCc2cn(CCCN3CCN(C(=O)CN4CCN(CC(=O)O)CCN(CC(=O)O)CCN(CC(=O)O)CC4)CC3)nn2)c1C [56c]
- bound to human serum proteins (mean ± SD) [3]: 97.6%
